Legend:
[1] = system: healthy male and female subjects; assay: Phase 1 study safety and tolerability (single and multiple dose); conditions: for Tolerability: healthy volunteers
Method: Screening procedures were conducted for both parts one and two before the start of the study on Day −1 (Baseline) by evaluating the safety assessments.
Subjects were monitored throughout their confinement at the Phase 1 unit for adverse reactions to the study drug and/or procedures.
Safety analyses were performed on the safety population tabulated by treatment arm, cohort, and visit. All safety data were characterized by descriptive statistical tools. […] Evaluation of safety assessments was performed in a descriptive manner. Continuous variables were characterized by their mean, standard deviation (SD), median, minimum and maximum values; discrete variables were characterized by their absolute (frequency) and relative (percentage) distribution.

[2] = system: patients with moderate to severe atopic dermatitis; assay: Phase II study of oral DS107G: safety; format: in vivo, human; conditions: oral 2 g once daily 8 weeks
Excerpt: Subjects visited the clinic on 6 occasions: at screening, baseline, week 2, week 4, week 8 (end of treatment/early termination) and week 10 (follow-up). All subjects exited the study at the week 10 visit. The primary efficacy variable was the proportion of patients achieving an IGA of 0 (clear) or 1 (almost clear), and a decrease of at least 2 points in IGA at week 8. Secondary efficacy variables included: IGA at other visits, pruritus (obtained from the SCORAD visual analog scale), EASI, BSA, POEM, DLQI, SCORAD and TEWL (for selected sites only). Safety was assessed through adverse events, physical examination, vital signs and safety laboratory tests (including pregnancy tests for women of childbearing potential), Pharmacokinetic samples were obtained at Baseline (Day 0), week 4 and week 8 visits in order to measure total and free DGLA plasma trough levels. Separate plasma samples were retained for later analysis of total fatty acid profile and interleukin profile.
Laboratory tests were performed at screening, Day 0, Week 4 and Week 8. If Week 8 results indicated a clinically significant change from baseline, laboratory tests were also performed at Week 10. […]
Efficacy was evaluated on the basis of the ITT population and analyses were performed based on the randomized treatment and not on the treatment received. […]

[3] = Phase 1 multiple-dose skin blister fluid concentrations of free and total DGLA; format: in vivo, human
Excerpt: The PK of DGLA in human skin following multiple doses of DS107G capsule given once daily for 28 days to healthy subjects.

[4] = Phase 1 multiple-dose (28 days) plasma pharmacokinetics of free and total DGLA, incl. steady state; format: in vivo, human; conditions: for Peak Trough Fluctuation (PTF), free DGLA, mean: steady state Day 28 (0-24 hours); for Peak Trough Fluctuation (PTF), mean (Table 29, total DGLA): steady-state Day 28 (0-24 hours)
Method: Multiple dose part two of the study comprised two cohorts (Cohorts five and six) of eight subjects each, who were administered multiple doses of study drug in the fasted state for 28 days. Subjects in Cohorts five and six received DS107G at 2000 or 4000 mg, respectively, or matching placebo once daily for 28 days. Cohort six was started after Cohort five's safety data were evaluated by the SMC. No interim analysis was planned. […]
In Part two of the study (Cohorts five and six), subjects were administered study drug (500-mg DS107G capsules or matching placebo capsules) once daily in the fasted state for 28 days. Subjects in Cohort five received study drug first and, if they tolerated the 2000-mg daily dose for the first 14 days, subjects in Cohort six were started on the 4000-mg daily dose for 28 days.
PK parameter was computed after correcting the dosed DGLA concentrations with baseline DGLA concentrations.

[5] = first value printed for the two dose cohorts (2000 mg assumed)
[6] = second value printed for the two dose cohorts (4000 mg assumed)

CCCCC/C=C\C/C=C\C/C=C\CCCCCCC(=O)O [DGLA, Dihomo gamma linolenic acid]
Tolerability ([1]; 2000- or 4000-mg once daily for 28 consecutive days): tolerated well
Deaths ([1]; multi-dose study): no deaths
Severe TEAEs ([1]; multiple dose): no severe TEAEs
Total number of TEAEs among active-treated subjects ([1]; multiple dose): 52
Proportion of subjects reporting diarrhea ([1]; multiple dose, 2000-mg group (3/6)): 50%
Proportion of subjects reporting diarrhea ([1]; multiple dose, 4000-mg group (4/6)): 66.7%
Subjects reporting nausea ([1]; multiple dose, 4000-mg treatment group (10 events among 4/6)): 66.7%
Incidence of TEAEs among active-treated subjects ([1]; multiple dose, 11/12 subjects): 91.73%
Tolerability ([1]; single dose 500, 1000, 2000 or 4000 mg): well tolerated
Incidence of diarrhea (loose stool), active-treated subjects ([1]; single dose, 5/24 subjects): 20.8%
Drug related Serious Adverse Events [2]: no drug related Serious Adverse Events
Tolerability [2]: very well tolerated
Mean total DGLA concentration in skin blister fluid, Day 28 over Day 1 ([3]; 2000 mg daily): about 2.5 fold
Mean total DGLA concentration in skin blister fluid, Day 28 over Day 1 ([3]; 4000 mg daily): ~3 fold
Increase of mean total DGLA concentrations in skin blister fluid with a doubling in dose ([3]; Days 1, 8, 14 and 28): about 1.4 fold
Mean free DGLA concentrations in skin blister fluid with a doubling in dose ([3]; Days 1, 8, 14 and 28, 2000 vs 4000 mg daily): approximately doubled
Mean free DGLA concentration in skin blister fluid, Day 28 over Day 1 ([3]; both 2000 and 4000 mg daily): about 3 fold
Mean concentrations of free DGLA in plasma versus skin blister fluid ([3]; same dose, Day 8 and Day 14 (but not Day 28)): somewhat similar
Mean concentrations of total DGLA in plasma versus skin blister fluid ([3]; same dose, after Day 1): much higher in plasma than in skin blister fluid
Mean accumulation ratio (AR) for AUC, free DGLA ([4]; 2000 mg daily): ~3.3
Mean accumulation ratio (AR) for Cmax, free DGLA ([4]; 2000 mg daily): ~2.8
Mean accumulation ratio (AR) for AUC, free DGLA ([4]; 4000 mg daily): ~1.6
Mean accumulation ratio (AR) for Cmax, free DGLA ([4]; 4000 mg daily): ~1.4
Time at which plasma concentrations reach steady-state (free and total DGLA) ([4]; 2000 and 4000 mg daily): ~14 days
Mean baseline-corrected free DGLA AUC0-24, 4000 mg over 2000 mg dose ([4]; Day 1): ~2.5 fold
Mean baseline-corrected free DGLA Cmax, 4000 mg over 2000 mg dose ([4]; Day 1): ~3 fold
Mean baseline-corrected total DGLA AUC0-24, 4000 mg over 2000 mg dose ([4]; Day 1): ~1.5 fold
Mean baseline-corrected total DGLA Cmax, 4000 mg over 2000 mg dose ([4]; Day 1): ~1.5 fold
Mean baseline-corrected free DGLA AUC0-24, 4000 mg over 2000 mg dose ([4]; Day 28): ~1.7 fold
Mean baseline-corrected free DGLA Cmax, 4000 mg over 2000 mg dose ([4]; Day 28): ~1.4 fold
Mean baseline-corrected total DGLA AUC0-24, 4000 mg over 2000 mg dose ([4]; Day 28): ~1.4 fold
Mean baseline-corrected total DGLA Cmax, 4000 mg over 2000 mg dose ([4]; Day 28): ~1.2 fold
Time of peak mean concentration of free DGLA after dosing ([4]; Days 1 and 28, 2000 and 4000 mg daily): about 4 hours
Increase of average concentration at steady state, free DGLA, dose doubled from 2000 to 4000 mg daily ([4]; in vivo): 1.6 fold
Increase of average concentration at steady state, total DGLA, dose doubled from 2000 to 4000 mg daily ([4]; in vivo): 1.2 fold
Peak Trough Fluctuation (PTF), free DGLA, mean [4, 5]: ~430%
Peak Trough Fluctuation (PTF), free DGLA, mean [4, 6]: ~490%
Peak Trough Fluctuation (PTF), mean (Table 29, total DGLA) [4, 5]: 62.5%
Peak Trough Fluctuation (PTF), mean (Table 29, total DGLA) [4, 6]: 44.9%

Reference: patent US20190175534A1, “PHARMACEUTICAL COMPOSITIONS COMPRISING DGLA AND USE OF SAME” (DS Biopharma Limited, priority 2016, published 2019)
